What was measured:
[1] = test system: core clock genes; assay: qPCR of pre-mRNA of core clock genes in liver; type: in vivo, mouse; settings: 15 mg/kg, 1 h after treatment
Procedure: Total RNA Extraction and pre-mRNA Analysis: Total RNA from liver was extracted 1 h after treatment of either DMSO or 15 mg/kg bw with QIAGEN Rneasy Mini Kit (74104, Qiagen), then digested with RNase-Free DNase Set (79254, Qiagen) to remove DNA residual. 500 ng total was reverse transcripted into cDNA with PrimeScript™ RT Master Mix (Takara, RR036A). To compare pre-mRNA levels, equal amount of cDNA RNA from DMSO and CA03 treated samples were analyzed using SYBR Green Master Mix (Kapa Biosystems, KP-KK4601) on a BioRad CFX96 instrument. Each gene was analyzed with multiple primers across the whole gene, and the amplification products were either intronic or across an intron-exon junction. Only primers with good melt-curve were used. For quantification, gene expression in DMSO treated sample was used as control, the relative genes expression in CA03 treated sample calculated by the comparative Ct Method.
Next, the inventors sought to determine whether the clock effects of cordycepin can be recaptured in vivo. […] Mice were intraperitoneally (i.p.) injected with the cordycepin at ZT4 (ZT, zeitgeber time; ZT0 starts light-on, and ZT12 begins light-off). […] This observation is especially true when nascent RNA levels were measured, highlighting the first-order, inductive response in E-box genes as previously proposed(FIG. 2B). […]

[2] = Cordycepin concentration in CSF after intraperitoneal injection; type: in vivo
Text: We measured the cordycepin concentration in cerebrospinal fluid (CSF) after the intraperitoneal (I.P.) injection.

[3] = Sleep phenotype by locomoter activity and electrophysiological recording; settings: in vivo
Text: This is considered as a positive side-effect to adapt to jet-lag, which causes more problems on the sleep than arousal side. […] This work provide immediate and important practical applications, including use the disclosed compounds to assist humans who suffer jet-lag or shift-work can use this drug to adjust the clock-phase, and simultaneously tune the sleep-wake pattern, particularly coupled with caffeine ingestion.

Nc1ncnc2c1ncn2[C@@H]1O[C@H](CO)C[C@H]1O [Cordycepin, 3′-deoxy-adenosine]
E-box gene transcription (pre-mRNA, liver) [1]: activate | RRE gene and internal control gene transcription (pre-mRNA, liver) [1]: repress | time of detection in the CSF after the injection [2]: ≤ 15 min | sleep phenotype [3]: leads to a sleep phenotype

— US12667584B2, “Adenosine analog and its use in regulating the circadian clock” (NATIONAL INSTITUTE OF BIOLOGICAL SCIENCES, BEIJING, priority 2017, dated 2026)
